Patent US20240002441A1, “PEPTIDES AND USES THEREOF IN MODULATION OF AMYLOID-BETA PROTEIN DEGRADING PROTEASES” (priority 2020, published 2024)
Like-named read-outs stand apart in the source and are kept apart here.

What was measured:
NEP [1] = molecular target: T1, NEP (Homo sapiens, UniProt P08473); assay: QFS assay of Aβ-degrading enzymes: NEP (Example 6); format: biochemical
T1 construct: purchased R & D systems 1182-ZNC-010
Protocol: (§1) Plate reader-based enzyme assays were performed using a quenched fluorescent substrate (QFS) in a 96-well format using a SpectraMAX M4 Microplate reader (Molecular Devices). The increase in fluorescence following addition of QFS (40 μM) was taken as evidence of enzyme activity. Fluorescence was monitored over 2 h at 37° C. using κEx=320 nm and λEm=405 nm. Assays were conducted in black 96-well plates. Specific enzyme activity was expressed as a rate of substrate cleavage calculated using a standard curve of 7-methoxy-coumarin-4-acetic acid.
(§2) In all plate reader-based enzyme assays using QFS, the reaction rate (μmol of substrate cleaved/min) was calculated using linear regression analysis (GraphPad Prism software version 8.01). The reaction rates calculated were used to generate the enzyme kinetic parameters Vmax and Km through non-linear regression analysis (GraphPad Prism software, version 8.01; Michaelis-Menten equation). Where indicated, enzyme activity in the presence of peptide was expressed as a % of the enzyme alone. Data were expressed as mean±SEM and statistical significance was determined using t-tests or one-way ANOVAs followed by Tukey's post-hoc test. P<0.05 was considered as statistically significant. In all assays conducted using 96-well plates, the reaction mixtures in each well were considered an independent experiment.
(§3) SEQ ID NO:2 was assessed in a QFS assay against enzymes NEP, ECE1, ECE2, ACE1, ACE2, IDE and MMP-2 using the method in Example 2 and the following procedure. NEP, ACE1, ECE2 (0.05 ng/μL), ACE2, IDE (0.10 ng/μL), and ECE1 (6.4 ng/μL) were incubated with SEQ ID NO:2 (0.9-26 μM) or scrambled control (9 μM) for 1 h at 37° C. Prior to use, MMP2 (0.50 ng/μL) was activated using p-aminophenylmercuric acetate to a final concentration of 100 μM for 1 h at 37° C. Following activation, MMP2 was incubated with SEQ ID NO:2 for 1 h at 37° C. before adding the appropriate QFS.

ACE2 = molecular target: T2, ACE2 (Homo sapiens, UniProt Q9BYF1); assay: QFS assay of Aβ-degrading enzymes: ACE2 (Example 6); format: biochemical
T2 construct: purchased R & D systems 933-ZN-010
T2 sequence (Q9BYF1 18-805): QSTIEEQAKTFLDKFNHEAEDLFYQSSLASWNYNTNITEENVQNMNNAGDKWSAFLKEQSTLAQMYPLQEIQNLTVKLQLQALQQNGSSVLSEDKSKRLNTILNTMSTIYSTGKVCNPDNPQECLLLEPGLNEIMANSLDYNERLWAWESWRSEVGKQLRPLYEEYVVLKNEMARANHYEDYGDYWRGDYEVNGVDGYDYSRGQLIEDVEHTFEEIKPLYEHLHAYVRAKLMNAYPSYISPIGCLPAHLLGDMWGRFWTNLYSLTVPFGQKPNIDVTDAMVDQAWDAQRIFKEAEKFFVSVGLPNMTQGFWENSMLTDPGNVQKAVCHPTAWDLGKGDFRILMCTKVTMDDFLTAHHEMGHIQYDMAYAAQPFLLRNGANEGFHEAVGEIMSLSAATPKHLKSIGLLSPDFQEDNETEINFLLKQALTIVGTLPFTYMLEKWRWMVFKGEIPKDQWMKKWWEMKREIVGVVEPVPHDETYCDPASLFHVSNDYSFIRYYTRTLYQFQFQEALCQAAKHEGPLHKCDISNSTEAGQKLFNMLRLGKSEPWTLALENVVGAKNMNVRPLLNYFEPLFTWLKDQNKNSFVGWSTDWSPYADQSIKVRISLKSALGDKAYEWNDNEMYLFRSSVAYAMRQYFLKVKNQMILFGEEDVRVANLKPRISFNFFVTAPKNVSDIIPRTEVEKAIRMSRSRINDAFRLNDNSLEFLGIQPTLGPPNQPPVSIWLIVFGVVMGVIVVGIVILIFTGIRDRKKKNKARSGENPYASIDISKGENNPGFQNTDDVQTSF
Protocol: as §1, §2, §3

ACE1 = molecular target: T3, ACE1 (Homo sapiens, UniProt P12821); assay: QFS assay of Aβ-degrading enzymes: ACE1 (Example 6); format: biochemical
T3 construct: purchased Sigma Aldrich SRP6270-10UG
T3 sequence (P12821 30-1306): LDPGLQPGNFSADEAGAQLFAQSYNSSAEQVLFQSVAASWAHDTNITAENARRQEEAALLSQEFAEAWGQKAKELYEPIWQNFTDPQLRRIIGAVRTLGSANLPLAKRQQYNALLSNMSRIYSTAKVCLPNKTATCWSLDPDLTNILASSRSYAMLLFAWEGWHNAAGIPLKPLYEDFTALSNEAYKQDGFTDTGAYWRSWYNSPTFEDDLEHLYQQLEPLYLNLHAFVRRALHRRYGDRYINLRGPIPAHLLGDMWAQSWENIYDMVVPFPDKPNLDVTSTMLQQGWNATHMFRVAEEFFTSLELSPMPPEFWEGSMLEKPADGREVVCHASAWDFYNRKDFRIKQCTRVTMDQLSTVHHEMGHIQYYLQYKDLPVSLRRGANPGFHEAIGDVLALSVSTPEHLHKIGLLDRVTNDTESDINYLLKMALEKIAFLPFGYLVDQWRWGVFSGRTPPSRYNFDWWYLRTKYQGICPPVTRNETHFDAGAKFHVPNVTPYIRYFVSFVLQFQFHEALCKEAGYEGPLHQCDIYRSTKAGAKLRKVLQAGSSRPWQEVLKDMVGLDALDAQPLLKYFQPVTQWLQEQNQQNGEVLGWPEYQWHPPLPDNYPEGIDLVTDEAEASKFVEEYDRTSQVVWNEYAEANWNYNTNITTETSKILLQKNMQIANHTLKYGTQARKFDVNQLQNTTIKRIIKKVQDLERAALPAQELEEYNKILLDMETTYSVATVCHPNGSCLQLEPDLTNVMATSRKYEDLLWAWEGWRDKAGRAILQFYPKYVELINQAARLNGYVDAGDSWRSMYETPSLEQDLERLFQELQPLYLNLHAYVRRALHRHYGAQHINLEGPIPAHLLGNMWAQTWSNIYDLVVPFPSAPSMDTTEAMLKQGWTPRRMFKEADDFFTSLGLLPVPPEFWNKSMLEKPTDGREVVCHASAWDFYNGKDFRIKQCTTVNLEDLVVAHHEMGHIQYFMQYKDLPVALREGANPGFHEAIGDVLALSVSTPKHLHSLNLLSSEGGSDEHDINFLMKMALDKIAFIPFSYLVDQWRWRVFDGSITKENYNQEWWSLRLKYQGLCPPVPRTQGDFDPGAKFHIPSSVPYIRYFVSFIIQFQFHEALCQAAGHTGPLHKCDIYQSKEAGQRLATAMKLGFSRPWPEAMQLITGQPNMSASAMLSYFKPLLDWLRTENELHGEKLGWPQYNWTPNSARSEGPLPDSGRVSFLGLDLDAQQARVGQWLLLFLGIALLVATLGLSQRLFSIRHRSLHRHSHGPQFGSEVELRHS
Protocol: as §1, §2, §3

ECE1 = molecular target: T4, ECE1 (Homo sapiens, UniProt P42892); assay: QFS assay of Aβ-degrading enzymes: ECE1 (Example 6); format: biochemical
T4 construct: purchased R & D systems 1784-ZN-010
T4 sequence (P42892 1-770): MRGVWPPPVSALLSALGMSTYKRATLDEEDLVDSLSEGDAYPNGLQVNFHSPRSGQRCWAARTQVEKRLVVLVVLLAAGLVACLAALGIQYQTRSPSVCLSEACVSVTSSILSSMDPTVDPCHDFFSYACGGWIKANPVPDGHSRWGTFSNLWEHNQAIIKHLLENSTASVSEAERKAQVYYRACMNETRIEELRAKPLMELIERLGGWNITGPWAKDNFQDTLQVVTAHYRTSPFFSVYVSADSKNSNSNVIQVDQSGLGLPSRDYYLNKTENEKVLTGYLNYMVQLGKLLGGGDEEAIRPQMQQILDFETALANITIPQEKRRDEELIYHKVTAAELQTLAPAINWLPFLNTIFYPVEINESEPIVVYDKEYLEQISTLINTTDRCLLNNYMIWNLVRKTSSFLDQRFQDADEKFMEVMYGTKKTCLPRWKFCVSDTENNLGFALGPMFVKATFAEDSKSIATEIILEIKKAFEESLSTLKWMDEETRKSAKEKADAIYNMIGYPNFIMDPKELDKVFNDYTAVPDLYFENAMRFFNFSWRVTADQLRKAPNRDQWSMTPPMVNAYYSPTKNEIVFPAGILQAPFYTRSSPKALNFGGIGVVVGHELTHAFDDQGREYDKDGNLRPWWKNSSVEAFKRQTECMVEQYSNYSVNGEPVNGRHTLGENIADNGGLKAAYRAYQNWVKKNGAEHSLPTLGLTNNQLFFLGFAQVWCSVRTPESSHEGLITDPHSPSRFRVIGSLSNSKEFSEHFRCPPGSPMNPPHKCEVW
Protocol: as §1
as §2, with “In all assays conducted using 96-well plates, the reaction mixtures in each well were considered an independent experiment.” left out
SEQ ID NO:2 was assessed in a QFS assay against enzymes NEP, ECE1, ECE2, ACE1, ACE2, IDE and MMP-2 using the method in Example 2 and the following procedure. […]

NEP [2] = molecular target: T1, NEP; assay: Cleavage of synthetic Aβ40 by NEP, LCMS (Example 7); format: biochemical; details: peptide 9 μM
Protocol: Synthetic Aβ40 (0.10 μg/μL) was added to a reaction mixture containing NEP (0.05 ng/μL) pre-incubated with SEQ ID NO:2 or scrambled control (9 μM) for 1 h at 37° C. Synthetic Aβ42 (0.05 μg/μL) was added to a reaction mixture containing NEP (0.15 ng/μL) preincubated with either scrambled control or SEQ ID NO:2 (9 μM) for 1 h at 37° C. Samples containing enzyme alone had only NEP buffer (Table 2). The cleavage reaction was allowed to continue in a thermomixer at 37° C. Aliquots of equal volume were taken over 24 h. Aliquots were immediately acidified with 0.1% trifluoroacetic acid (TFA) to terminate enzyme activity and snap frozen in dry ice. Samples were stored at −80° C. until analysed by LCMS.
Samples were analysed by LC-MS/MS using a quadrupole TOF mass spectrometer (MicroTOFq, Bruker Daltonics, Bremen, Germany) coupled online with a 1200 series nano-HPLC (Agilent technologies, Santa Clara, CA, USA). Samples were injected onto a zorbax 300SB reversed phase trap column with 95% solvent A (0.1% formic acid) at a flow rate of 10 μL/minute. The peptides were eluted over a 10-min gradient to 70% solvent B (80% acetonitrile, 0.1% formic acid) and separated on a 15-cm, 75-μmID zorbax 300SB nanocolumn. The eluent was nebulised and ionised using the Bruker nano-ESI source with a capillary voltage of 4500 V, dry gas at 180° C., flow rate of 5 L/minute and nebuliser gas pressure at 300 mbar. The MS acquisition was in selected ion monitoring mode after selected ion extraction of the MS spectra. Prior to analysis, the qTOF mass spectrometer was calibrated using a 1:50 dilution tuning mix (Agilent technologies, Santa Clara, CA, USA). Data from MS run were processed in Skyline version 19.1.0.193 (Uni. Of Washington, WA, USA) to perform ion chromatogram extractions and peak integrations.

SARS-CoV-2 = format: cell-based; details: pre-treatment, Vero cells, 8 h

T1 sequence (P08473 whole entry): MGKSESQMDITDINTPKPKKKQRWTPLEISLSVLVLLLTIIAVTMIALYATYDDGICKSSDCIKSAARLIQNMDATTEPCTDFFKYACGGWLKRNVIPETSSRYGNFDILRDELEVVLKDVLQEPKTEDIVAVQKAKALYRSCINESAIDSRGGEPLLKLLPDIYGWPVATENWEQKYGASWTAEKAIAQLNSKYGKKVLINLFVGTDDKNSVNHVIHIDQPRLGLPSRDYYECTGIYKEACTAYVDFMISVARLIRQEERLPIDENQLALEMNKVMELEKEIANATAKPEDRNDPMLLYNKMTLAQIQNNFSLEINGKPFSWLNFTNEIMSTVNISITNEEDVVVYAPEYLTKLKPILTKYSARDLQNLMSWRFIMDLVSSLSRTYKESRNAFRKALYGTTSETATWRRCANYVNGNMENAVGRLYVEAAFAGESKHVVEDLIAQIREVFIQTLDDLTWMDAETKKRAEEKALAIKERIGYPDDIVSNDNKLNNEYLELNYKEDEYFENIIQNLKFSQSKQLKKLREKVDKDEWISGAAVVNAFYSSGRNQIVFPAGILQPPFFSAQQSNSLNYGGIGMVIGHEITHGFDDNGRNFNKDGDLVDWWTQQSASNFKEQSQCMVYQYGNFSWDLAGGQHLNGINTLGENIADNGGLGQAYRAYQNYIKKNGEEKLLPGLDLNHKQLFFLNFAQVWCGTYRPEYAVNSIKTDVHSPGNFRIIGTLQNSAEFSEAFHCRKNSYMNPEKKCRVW

In the case of “H-SLFELGKMIL-NH2 [SEQ ID NO:2, H2N-SLFELGKMIL-NH2]”, the “submaximal concentration against NEP” value (NEP [1]) is reported as 9 µM, the “NEP activity compared with respective enzyme alone” value (NEP [1]; peptide 2 μM (FIG. 2c)) is reported as “significantly increased” and the “activity of NEP as % of enzyme alone controls” value (NEP [1]; peptide 9 μM) is reported as 380%. For the same substance, the “NEP activity, concentration dependence” value (NEP [1]; peptide 0.9-26 μM) was “increased the activity”, the “ACE2 activity compared with respective enzyme alone” value (ACE2; peptide 2 μM (FIG. 2c)) was “significantly increased” and the “activity of ACE2 as % of enzyme alone controls” value (ACE2; peptide 9 μM) was 283%. The “ACE2 activity, concentration dependence” value (ACE2; peptide 0.9-26 μM) was “increased the activity”, the “ACE1 activity compared with respective enzyme alone” value (ACE1; peptide 2 μM (FIG. 2c)) was “significantly increased” and the “ACE1 activity compared with respective enzyme alone” value (ACE1; peptide 9 μM, significantly less compared with ACE2 and NEP) was “significantly higher”. The “ACE1 activity, concentration dependence” value (ACE1; peptide 0.9-26 μM) was “increased the activity”, the “ECE1 activity compared with respective enzyme alone” value (ECE1; peptide 2 μM (FIG. 2c)) was “did not increase” and the “ECE1 activity, concentration dependence” value (ECE1; peptide 0.9-26 μM) was “did not affect”. The “decrease in Aβ1-21 peak area over 4-20 h” value (NEP [2]; Aβ40 cleavage) was 7.5×10^7±1.3×10^7 arbitrary units, the “levels of Aβ1-21 (peak area) at 4 h” value (NEP [2]; Aβ40 cleavage, 4 h) was 7.9×10^7±1.3×10^7 arbitrary units and the “levels of Aβ1-21 (peak area) at 24 h” value (NEP [2]; Aβ40 cleavage, 24 h) was 4.1×10^6±4.8×10^5 arbitrary units. For the same substance, the “peak area corresponding to Aβ1-12 after 24 h” value (NEP [2]; Aβ40 cleavage, 24 h) was 1.3×10^8±7.9×10^6 arbitrary units, the “time at which breakdown of Aβ40 was complete” value (NEP [2]; NEP 0.05 ng/μL) was 4 h and the “amount of Aβ40 remaining after 4 h (peak area)” value (NEP [2]; NEP 0.05 ng/μL, Aβ40 0.10 μg/μL, 4 h) was 1.3×10^6±2.7×10^5 arbitrary units. For the same substance, the “amount of Aβ40 remaining after 24 h, SEQ ID NO:2 versus scrambled control” value (NEP [2]; 24 h) was “no significant difference”, the “viral titre compared to PBS” value (SARS-CoV-2; 200 ng/μL) was “significantly reduced” and the “viral RNA compared to PBS” value (SARS-CoV-2; 400 ng/μL) was “significantly reduced”. The “viral titre compared to PBS” value (SARS-CoV-2; 400 ng/μL) was “significantly reduced”.
